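These data come from cells grown in 96-well plates and exposed to compound for 48 hours at five concentrations. The concentration for 50% growth inhibition is given as GI50. TGI: total growth inhibition.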

TGI and GI50 data for 16 molecules are collected here from PubChem BioAssay (NCI).

What all share (assay): growth of human tumour cells (NCI), 48 h
Assay [1] has as its system SK-OV-3 ovarian.
Assay [2] relates to SW-620 colon.
The test system of assay [3] is CCRF-CEM leukemia.
Assay [4] relates to RPMI-8226 leukemia.
Assay [5] relates to IGROV1 ovarian.
In assay [6] the test system is A549 NSCLC.
For assay [7], the system named is NCI-H23 lung.
The test system of assay [8] is OVCAR-8 ovarian.
Assay [9] relates to COLO 205 colon.
Assay [10] relates to SN12C renal.

Turning to `COC(=O)[C@@]12C3=NO[C@]1(C(=O)OC)C(O[Si](C)(C)C(C)(C)C)[C@H]1OC(C)(C)O[C@H]1[C@@H]2C(OCc1ccccc1)CC3` (stereo partly drawn), the TGI in [1], in assay [2], in assay [3], in assay [4], in [5] and in assay [6] was greater than 100 µM each time. For the same molecule, the TGI in [7], in assay [8], in [9] and in assay [10] was greater than 100 µM throughout.

Consider `COc1ccc2c(c1)C(=O)/C(=C/c1ccc(OCC(=O)Nc3nccs3)cc1)O2`, for which the GI50 in [1] is 17.4 µM; in assay [2] it was 2.88 µM; in [3] it was 0.183 µM; in assay [4], 0.439 µM; in assay [5] it was 0.0169 µM; in assay [6], 1.76 µM. The GI50 in assay [7] was 0.711 µM; in assay [8], 17.2 µM; in assay [9], 0.979 µM; in assay [10] it was 2.51 µM. The TGI in [1] is greater than 95.4 µM; in assay [2], 10.2 µM; in [4], 4.56 µM; in assay [5], 0.036 µM; in [6], 16 µM; in assay [7] it was 19.9 µM. For the same molecule, the TGI in assay [8] is greater than 60.5 µM; in assay [9], 5.09 µM; in [10], 18.9 µM.

With `CC(C)c1ccc(C(C)C(=O)N(CC2=C(C(C)c3ccccn3)c3ccccc3C2)C(C)C)cc1` (stereo not drawn), the GI50 is 6.63 µM in assay [1]; 3.18 µM in assay [2]; 3.25 µM in assay [3]; 2.32 µM in assay [4]; 2.77 µM in assay [5]; 3.85 µM in assay [6]. Also, the GI50 in assay [7] was 3.35 µM; in [8] it was 3.82 µM; in assay [9], 1.75 µM; in [10], 1.88 µM. Also, the TGI in assay [1] is greater than 100 µM; in assay [2], 15.8 µM; in assay [3], 22 µM; in [4] it was 7.52 µM; in assay [5], 31.3 µM; in assay [6] it was greater than 100 µM. Also, the TGI in assay [7] is 53.6 µM; in assay [8], greater than 100 µM; in [9], 3.23 µM; in assay [10], 3.51 µM.

For `Cc1cc(=O)[nH]c(NNC(C#N)c2cccc(O)c2)n1` (stereo not drawn), the TGI in assay [1], in [2], in [3], in assay [4], in [5] and in assay [6] was greater than 100 µM throughout. The TGI in assay [7], in [8], in [9] and in assay [10] was greater than 100 µM each time.

For `CC1=C(C(=O)Nc2ccc(F)c(Cl)c2)C(c2ccc(Cl)cc2)NC(=O)N1` (stereo not drawn), the GI50 is 81.8 µM in assay [1]; 24.8 µM in assay [2]; 15.3 µM in [3]; 13.6 µM in assay [4]; 12.6 µM in assay [5]; 20.1 µM in assay [6]. Moreover, the GI50 in assay [7] was 17.4 µM; in assay [8], 18.4 µM; in assay [9], 37.5 µM; in assay [10] it was 17.8 µM. In addition, the TGI is greater than 100 µM in [1]; 66 µM in assay [2]; 38.8 µM in assay [3]; 36.3 µM in assay [4]; 31.9 µM in assay [5]; 46.3 µM in assay [6]. The TGI in [7] was 33.8 µM; in assay [8], 36.8 µM; in assay [9], greater than 100 µM; in assay [10], 32.2 µM.

For the molecule `NC1CCC(Nc2nc(NCc3ccc(-c4ccco4)nc3)c3ncn(C4CCCC4)c3n2)CC1` (stereo not drawn), the GI50 in assay [1] was 0.049 µM; in assay [2], 0.0117 µM; in assay [3], 0.0362 µM; in [4], 0.0119 µM; in assay [5] it was 0.0351 µM; in assay [6], 0.0273 µM. Also, the GI50 in assay [7] is 0.0264 µM; in assay [8] it was 0.0431 µM; in [9] it was 0.0143 µM; in assay [10] it was 0.0371 µM. Also, the TGI was determined as 15.6 µM in assay [1]; 11.5 µM in [2]; 1.88 µM in [3]; 0.0895 µM in assay [4]; 10.7 µM in assay [5]; 14.4 µM in assay [6]. The TGI in assay [7] was 0.0953 µM; in assay [9] it was 0.0314 µM; in assay [10], 11.6 µM.

Take `CSc1ccccc1C#C/C=C\C#Cc1ccccc1N1CCCC1=O`: the TGI was greater than 50 µM in [1]; greater than 17.6 µM in assay [2]; greater than 50 µM in [3]; greater than 50 µM in assay [5]; greater than 50 µM in [6]; greater than 50 µM in assay [7]. In addition, the TGI in assay [8] is greater than 50 µM; in assay [9] it was greater than 12.6 µM; in [10], greater than 50 µM. Moreover, the GI50 is 3.34 µM in [4]; 14.9 µM in assay [5]; greater than 11 µM in assay [6]; greater than 12.7 µM in [7]; greater than 13.1 µM in assay [8]; greater than 26.2 µM in assay [10].

Consider `O=C(NCCNc1nccc(-c2c(-c3cccc(O)c3)nc3sccn23)n1)c1ccccc1O`, for which the GI50 is 4.31 µM in assay [1]; 5.86 µM in assay [2]; 1.21 µM in [3]; 2.27 µM in [4]; 4.52 µM in assay [5]; 5.02 µM in assay [6]. Further, the GI50 was 4.51 µM in [7], 3.14 µM in assay [8], 5.32 µM in assay [9] and 3.56 µM in [10]. In addition, the TGI was 39.7 µM in assay [1]; 48.4 µM in assay [2]; 19.4 µM in assay [3]; 10.8 µM in assay [4]; greater than 73 µM in assay [5]; greater than 51.1 µM in [6]. For the same molecule, the TGI in assay [7] is 36.8 µM; in assay [8] it was 25.4 µM; in assay [9] it was 23.4 µM; in assay [10], 52 µM.

In the case of `O=C1c2ccccc2C(=O)c2sc(Nc3cccc(Cl)c3)nc21`, the TGI is 10.9 µM in [1]; 2.26 µM in assay [2]; 3.89 µM in [3]; 4.07 µM in assay [4]; 5.9 µM in [5]; 4.6 µM in assay [6]. Besides, the TGI in assay [7] stood at 3.59 µM; in [8], 3.27 µM; in assay [9] it was 7.68 µM; in assay [10] it was 2.84 µM.

`COc1cc(C(=O)/C=C/c2sc(Cl)nc2Cl)cc(OC)c1OC`: the GI50 in [1] was 6.43 µM; in assay [2], 1.68 µM; in [3] it was 1.91 µM; in [4], 1.69 µM; in assay [5], 1.68 µM; in [6], 3.18 µM. Further, the GI50 is 1.64 µM in [7], 1.93 µM in [8], 1.72 µM in [9] and 1.74 µM in [10]. Moreover, the TGI worked out at 19.8 µM in assay [1]; 3.45 µM in assay [2]; 4.95 µM in assay [3]; 4.57 µM in [4]; 3.22 µM in [5]; 11.8 µM in assay [6]. Besides, the TGI in assay [7] was 3.04 µM; in assay [8], 3.96 µM; in assay [9], 3.9 µM; in [10], 3.2 µM.

As to `Fc1ccc(Nc2ncnc3ccc(-c4cnc5[nH]ccc5c4)cc23)cc1Cl`, the GI50 in assay [1] is 4.62 µM; in assay [2], 4.02 µM; in assay [3], 7.83 µM; in assay [4], 3.09 µM; in [5], 0.45 µM; in [6] it was 1.79 µM. Further, the GI50 in assay [7] was 8.74 µM; in assay [8] it was 2.94 µM; in [9], 3.58 µM; in assay [10], 1.73 µM. The TGI in [1] is 32.6 µM; in assay [2] it was greater than 47.3 µM; in [3], greater than 100 µM; in [4], greater than 100 µM; in [5], 3.41 µM; in assay [6] it was 5.33 µM. The TGI was greater than 100 µM in assay [7], 14.9 µM in [8], 46.3 µM in assay [9] and 4.88 µM in assay [10].

Turning to `O=C(Nc1ccc(I)cc1)c1cc([N+](=O)[O-])ccc1O`, the GI50 is 6.15 µM in assay [1]; 15.5 µM in [2]; 3.69 µM in [3]; 2.65 µM in assay [4]; 13.8 µM in assay [5]; 11.6 µM in [6]. For the same molecule, the GI50 in assay [7] was 4.07 µM; in assay [8], 7.21 µM; in [9] it was 10.9 µM; in assay [10], 4.61 µM. Also, the TGI is greater than 100 µM in assay [1]; 54.5 µM in assay [2]; 50.1 µM in assay [3]; 8.78 µM in assay [4]; greater than 100 µM in assay [5]; greater than 100 µM in [6]. Moreover, the TGI in assay [7] was greater than 100 µM; in assay [8], 25.8 µM; in assay [9], 28.1 µM; in [10], 75.4 µM.

Turning to `COc1cc2nc(C)nc(N[C@H](C)c3cc(N)cc(C(F)(F)F)c3)c2cc1O[C@H]1CCOC1`, the GI50 is 14.2 µM in assay [1]; 14.6 µM in [2]; 13.5 µM in assay [3]; 11 µM in [4]; 2.25 µM in assay [5]; 14.8 µM in assay [6]. The GI50 in assay [7] was 13.2 µM; in assay [8], 15.5 µM; in assay [9], 15.8 µM; in [10] it was 6.46 µM. In addition, the TGI in assay [1] came to 28.3 µM; in assay [2], 31.3 µM; in [3], 49.3 µM; in assay [4] it was 47.9 µM; in assay [5] it was 20.3 µM; in assay [6], 32.4 µM. The TGI is 30.6 µM in [7], 42.8 µM in assay [8], 33.4 µM in assay [9] and 21.9 µM in [10].

For the molecule `CN(C)CCCNC1=C(Cl)C(=O)c2ccccc2C1=O`, the GI50 in assay [1] is 15 µM; in assay [2], 1.69 µM; in assay [3], 3.9 µM; in assay [4] it was 4.25 µM; in assay [5] it was 2.01 µM; in assay [6], 16.1 µM. Also, the GI50 in assay [7] was 1.74 µM; in assay [8], 2.08 µM; in assay [9], 1.9 µM; in [10] it was 1.62 µM. For the same molecule, the TGI in [1] was determined as 28.3 µM; in assay [2] it was 3.42 µM; in assay [3], 14.4 µM; in assay [4], 21.4 µM; in assay [5] it was 4.12 µM; in assay [6], 32.5 µM. The TGI in assay [7] was found to be 3.87 µM; in assay [8] it was 4.39 µM; in [9], 3.45 µM; in assay [10], 3.12 µM.

As to `CNC(=O)c1ccccc1Nc1nc(Nc2ccc(N3CCOCC3)cc2OC)ncc1Cl`, the GI50 in [1] was 0.543 µM; in [2] it was 0.314 µM; in assay [3] it was 0.531 µM; in assay [4], 2.02 µM; in [5] it was 0.277 µM; in assay [6], 0.344 µM. The GI50 in assay [7] is 0.571 µM; in [8], 2.29 µM; in [9] it was 0.103 µM; in assay [10], 1.77 µM. For the same molecule, the TGI was 3.7 µM in [1]; greater than 100 µM in [2]; greater than 81.9 µM in assay [3]; greater than 48.5 µM in assay [4]; 2.15 µM in assay [5]; greater than 20.4 µM in assay [6]. For the same molecule, the TGI was greater than 43.8 µM in assay [7], greater than 100 µM in assay [8], 0.59 µM in [9] and greater than 100 µM in assay [10].

In the case of `C=C(CNCCO)[C@@H]1CC[C@]2(CO)CC[C@]3(C)[C@H](CC[C@@H]4[C@@]5(C)CCC(N)C(C)(C)[C@@H]5CC[C@]43C)[C@@H]12` (stereo partly drawn), the GI50 in assay [1] was 11.1 µM; in assay [2], 1.89 µM; in assay [3], 2.04 µM; in assay [4], 2.03 µM; in [5], 6.05 µM; in [6] it was 2.41 µM. Further, the GI50 in assay [7] is 4.66 µM; in [8], 1.82 µM; in assay [9], 1.73 µM; in assay [10], 1.97 µM. Besides, the TGI turned out to be 23.3 µM in assay [1]; 3.75 µM in assay [2]; 5.93 µM in assay [3]; 4.73 µM in [4]; 20.8 µM in [5]; 6.69 µM in assay [6]. Further, the TGI in [7] is 17.6 µM; in assay [8], 3.74 µM; in assay [9] it was 3.35 µM; in [10], 4.07 µM.
